# Data as given in US4952580A, “Pesticidal polyhaloalkene derivatives” (priority 1988, dated 1990).
# Like-named read-outs stand apart in the source and are kept apart here.
# Key:
# [1] = test system: stunt nematode; test: Stunt Nematode Test; type: in vivo
# Procedure: (§1) Compounds of this invention were tested as follows for nematicidal and anthelmintic activity as dust formulations (initial and residual activity) and as acetone/water formulations (systemic activity). The formulations are described above.
# The procedure was substantially the same as in the […] seedling, with subsequent inoculation of the soil with combined larvae and adult stunt nematodes. The samples were evaulated approximately four weeks after infestation. […] "Percent control" means the difference between average population counts between untreated and treated samples, divided by average population count of untreated sample, multiplied by 100.
# [2] = test system: root-knot nematode (Meloidogyne incognita); test: Initial Root-Knot Nematicidal Activity; type: in vivo; settings: 336 h, read-out: Percent Control; for pest or weed control at 1.25 ppm: Table 2, Application Rate 1.25 ppm
# Procedure: as §1
# The activity against root-knot nematode (Meloidogyne incognita) was determined by incorporating the compound of the invention in nematode infested soil at rates in the range of 10 ppm to 0.078 ppm of compound. Several tomato or cucumber seedlings were planted in the nematode infested soil. Two weeks after planting the test pots were evaluated to ascertain the degree of galling (swelling) on the roots of the plants, indicating the control provided by the test chemical.
# The results expressed as precent control (determined by knot index) are set forth as averages in Table 2 (appended). Knot index is a numerical designation assigned at evaluation, having the following meanings:
# Percent control is related to knot index as follows:
# When the Knot Index is between 0 and 1 it is further subdivided as follows to indicate how close the percent control is to 75% or 100%: […]
# [3] = test system: root-knot nematode; test: Systemic Activity (basipetal, foliar spray) against root-knot nematode; type: in vivo, Meloidogyne incognita; settings: 336 h, Table 8, rate 2000 ppm, read-out: Percent Control
# Procedure: as §1
# Compounds of the invention were tested for basipetal systemic activity against the root-knot nematode. In this test, tomato plants are grown in 10.2 cm diameter fiber pots containing steam-pasteurized soil mix (50%, soil, 50% sand) until 4-6 true leaves appear. Three of the pots are then placed on a turntable in a spray hood and the plants sprayed with 50 ml of water/acetone solution containing the test compound. The soil surface is covered during the spraying to prevent spraying of the soil. After treatment, the potted plants are placed in a lighted drying chamber. The plants are then grown in a growth chamber at 25° C. for three days and inoculated with a standard nematode culture by incorporating the inoculum into the top cm of soil in the pots. The plants are returned to the growth chamber for about two weeks at which time the pots are allowed to dry until the plants begin to wilt. The roots are shaken free of soil and the degree of galling (swelling) noted as compared to galling of untreated control plants. The results are expressed as Knot Index and Percent Control as defined in the initial root-knot nematode activity tests reported above in Table 2.
# [4] = test system: lesion nematode; test: Lesion Nematode Test; type: in vivo; settings: Table 5; rate 2.5 ppm; read-out: Percent Control
# Procedure: as §1
# The procedure was substantially the same as in the stunt nematode test described above except that pea seedlings were used. The results (Table 5 appended) show good control with many of the compounds at the application rates tested as compared with untreated samples (no control). "Percent Control" is defined as follows: [formula]
# [5] = test system: root-knot nematode; test: Residual Root-Knot Nematicidal Activity; type: in vivo, Meloidogyne incognita; settings: Table 3a, 5% dust, 5 ppm, read-out: Percent Control
# Procedure: as §1
# The ability of nematicidal compounds of the invention to control root-knot nematode infestations in soil over a period of time after treatment was evaluated. Dust formulations of test compound (5%) were incorporated into soil samples at test compound rates of 5 and 10 ppm. Subsequently, the treated soil samples were inoculated with nematode inoculum at weekly intervals, and Knot Index and Percent Control determined on seedlings planted in the soil samples. Specifically, soil treated with test compound was placed in 7.6 cm diameter fiber pots and stored in a greenhouse. At one, two and four weeks post-treatment, the appropriate number of pots was infested with root-knot nematode eggs and larvae. A cucumber or tomato seedling was planted in each pot and evaluated approximately two weeks after the soil infestation to obtain the test results reported in Tables 3 and 3a appended.
# [6] = test system: root-knot nematode; test: Soil Mobility against root-knot nematode; type: in vivo, Meloidogyne incognita; settings: 336 h
# Procedure: as §1
# The ability of nematicidal compounds of the invention to move through nematode-infested soil […] infested soil, and subsequently eluting the soil with 15 cm of water (equivalent to 15 cm of rainfall) into a series of two or more pots of untreated, but nematode-infested, soil. Specifically, the pots were 8 cm diameter plastic pots containing a 10 cm^3 layer of sand over a coarse grade filter paper disc. Sufficient soil was placed over the sand to fill the pots, and a second filter paper disc was placed over the soil. Each test compound-treated pot was nested over a series of two or more pots containing untreated, but nematode-infested soil, also containing sand filter paper discs as described for the treated soil pots. Fifteen cm of water was slowly dripped into the top pots and the pots were allowed to drain for 16-18 hours to remove excess water. The top filter of each pot was then removed and the pots were planted with a cucumber or tomato seedling. […] "Knot Index" and "Percent Control" are as defined in the initial root-knot nematode tests above.
# [7] = test system: Caenorhabditis elegans; test: C. Elegans Nematode Screening Test and Evaluation (in-vitro); settings: Caenorhabditis elegans
# Procedure: This in-vitro test using the free-living nematode Caenorhabditis elegans, is a modification of the assay developed by Simpkin and Coles, J. Chem. Tech. […] One milliliter of a test medium consisting of 5 mg ampicillin, 10,000 units of mycostatin and 10 ml of a dense suspension of Escherichia coli per 100 ml of a buffer solution, was pipetted into each well of a 24-well microtiter plate. The candidate nematicide, suspended at the appropriate concentration in dimethylsulfoxide, was added to the wells in […] volumes. Each rate of application was replicated two to three times. After thorough mixing of the contents of each well, 50 to 100 μl of a nematode suspension in a buffer was added so that each well received 10-15 nematodes. After the nematodes were added, the microtiter plates were incubated at 20° C. for 5-6 days.
# The effect of the candidate nematicide on the survival and the reproduction of C. elegans was then evaluated by comparison of the level of population developed in the treated wells with that in untreated wells. Specific effects on population development, such as reduced egg hatch or molting disruption, were noted if they were evident.
# [8] = Table 2, Application Rate 0.625 ppm
# [9] = Table 2, Application Rate 2.5 ppm
# [10] = 168 h, inoculation 1 week post-treatment
# [11] = 336 h, inoculation 2 weeks post-treatment
# [12] = 672 h, inoculation 4 weeks post-treatment
# [13] = Table 7a, 5% dust, 5 ppm, BOTTOM container, read-out: Percent Control
# [14] = Table 7a, 5% dust, 5 ppm, MIDDLE container, read-out: Percent Control
# [15] = Table 7a, 5% dust, 5 ppm, TOP container, read-out: Percent Control
# [16] = 672 h, Table 4a; rate 5 ppm; read-out: Percent Control
# [17] = Table 2, Application Rate 0.312 ppm
# [18] = read-out: Percent Control, Table 7a, 5% dust, 5 ppm, BOTTOM container
# [19] = 672 h; Table 4a; rate 5 ppm; read-out: Percent Control
Structure (SMILES),"pest or weed control at 0.625 ppm [2, 8]",pest or weed control at 1.25 ppm [2],"pest or weed control at 2.5 ppm [2, 9]",pest or weed control at 2.5 ppm [4],"pest or weed control at 5 ppm [5, 10]","pest or weed control at 5 ppm [5, 11]","pest or weed control at 5 ppm [5, 12]","pest or weed control at 5 ppm [6, 13]","pest or weed control at 5 ppm [6, 14]","pest or weed control at 5 ppm [6, 15]","pest or weed control at 5 ppm [1, 16]","pest or weed control at 0.312 ppm [2, 17]",other results
"FC(F)=C(F)CCN=C=S [Compound 6, (3,4,4-trifluoro-3-butenyl) isothiocyanate]",,,,,,,,,,,,,"pest or weed control at 5 ppm ([1]; 672 h, Table 4; rate 5 ppm; read-out: Percent Control): 51%; pest or weed control at 2.5 ppm [2]: 38%; pest or weed control at 5 ppm [2]: 78%; pest or weed control at 10 ppm [2]: 100%"
"CC(C)(C)CC(C)(C)Sc1nnc(SCCC(F)=C(F)F)s1 [Compound 12, 2-(1,1,3,3-tetramethylbutylthio)-5-(3,4,4-trifluoro-3-butenylthio)-1,3,4-thiadiazole]",69%,79%,100%,,,,,,,,,,"pest or weed control at 2000 ppm [3]: 73%; pest or weed control at 2000 ppm ([3]; foliar): 99%; pest or weed control at 0.313 ppm ([2]; Table 2, Application Rate 0.313 ppm): 8%"
"N#CCCSc1nnc(SCCC(F)=C(F)F)s1 [Compound 28, 2-(2-cyanoethylthio)-5-(3,4,4-trifluoro-3-butenylthio)-1,3,4-thiadiazole]",86%,98%,100%,45%,100%,100%,8%,68%,83%,68%,38%,81%,
"CCCSc1nnc(SCCC(F)=C(F)F)s1 [Compound 29, 2-propylthio-5-(3,4,4-trifluoro-3-butenylthio)-1,3,4-thiadiazole]",99%,99%,99%,68%,100%,98%,81%,50%,81%,98%,56%,,pest or weed control at 0.312 ppm [2]: 95%
"CC(C)Sc1nnc(SCCC(F)=C(F)F)s1 [Compound 30, 2-(1-methylethylthio)-5-(3,4,4-trifluoro-3-butenylthio)-1,3,4-thiadiazole]",99%,99%,100%,75%,98%,97%,83%,,100%,99%,66%,97%,"pest or weed control at 5 ppm [6, 18]: 17%"
"FC(F)=C(F)CCSc1nnc(Cc2ccc(Cl)cc2)o1 [Compound 43, 2-(4-chlorophenylmethyl)-5-(3,4,4-trifluoro-3-butenylthio)-1,3,4-oxadiazole]",,56%,97%,93%,100%,100%,100%,81%,97%,99%,81%,78%,"inhibition at 5 ppm ([7]; Table 9 screen, 5 ppm, read-out: Percent Inhibition of Reproduction): 100%; mortality at 5 ppm ([7]; Table 9 screen, 5 ppm, read-out: Percent Mortality): 25%; mortality at 5 ppm ([7]; Table 10 evaluation, 5 ppm, read-out: Percent Mortality): 83%; inhibition at 1.25 ppm ([7]; Table 10 evaluation, 1.25 ppm, read-out: Percent Inhibition of Reproduction): 42%; mortality at 1.25 ppm ([7]; Table 10 evaluation, 1.25 ppm, read-out: Percent Mortality): 0%; inhibition at 2.5 ppm ([7]; Table 10 evaluation, 2.5 ppm, read-out: Percent Inhibition of Reproduction): 100%; mortality at 2.5 ppm ([7]; Table 10 evaluation, 2.5 ppm, read-out: Percent Mortality): 67%; pest or weed control at 5 ppm [1, 19]: 62%; pest or weed control at 0.078 ppm ([2]; Table 2, Application Rate 0.078 ppm): 13%; pest or weed control at 0.156 ppm ([2]; Table 2, Application Rate 0.156 ppm): 38%; pest or weed control at 0.5 ppm ([2]; Table 2, Application Rate .5 ppm): 99%"
"FC(F)=C(F)CCSc1nnc(CCc2ccccc2)o1 [Compound 47, 2-(2-phenylethyl)-5-(3,4,4-trifluoro-3-butenylthio)-1,3,4-oxadiazole]",,96%,100%,69%,96%,25%,0%,58%,96%,98%,35%,,pest or weed control at 0.312 ppm [2]: 95%; pest or weed control at 0.625 ppm [2]: 95%
"FC(F)=C(F)CCSc1nnc(-c2ccc(Br)cc2)o1 [Compound 49, 2-(4-bromophenyl)-5-(3,4,4-trifluoro-3-butenylthio)-1,3,4-oxadiazole]",100%,100%,100%,,,,,8%,71%,99%,58%,98%,
"FC(F)=C(F)CCSc1nnc(-c2ccc(F)cc2)o1 [Compound 50, 2-(4-fluorophenyl)-5-(3,4,4-trifluoro-3-butenylthio)-1,3,4-oxadiazole]",99%,99%,100%,,,,,,71%,98%,,78%,"pest or weed control at 5 ppm [6, 18]: 33%; pest or weed control at 5 ppm [1, 19]: 53%"
